The text below walks through data of patent US6716878B1, “Antimicrobial agents” (Vernalis (Oxford) Limited, priority 1999, dated 2004).

Molecules are shown by their SMILES. In brackets after ≈: the same amount, converted by molar mass.

One experiment concerns E. coli strain DH5α. The experiment is described as follows: Minimal inhibitory concentration (MIC) against E. coli, two fold serial dilutions in 2xYT broth. The class given is cell-based. To be noted: Escherichia coli; E. coli strain DH5α; 2xYT broth, 37° C., 18 hours; lowest drug concentration that inhibited visible growth; read-out: MIC (E. coli). On the procedure:
(§1) Where MIC values are quoted for the compounds of the examples, those results were obtained by the method described in the Biological Example.
(§2) Minimal inhibitory concentrations (MIC) of inhibitors against E. coli strain DH5α (Genotype; F-φ80d/acZΔM 15Δ(lacZYA-argF)U 169 deoR recA1 endA1 hsdR17(rk^−, mk^+)phoA supE44λ^−thi-1 gyrA96 re/A1) obtained from GibcoBRL Life Technologies, or Staphylococcus capitis (American Type Culture Collection number 35661) were determined as follows. Stock solutions of each test compound were prepared by dissolution of the compound in dimethylsulfoxide at 10 mM. For the determination of the minimal inhibitory concentration, two fold serial dilutions were prepared in 2×YT broth (typtone 16 g/l, yeast extract 10 g/l, sodium chloride 5 g/l obtained from BIO 101 Inc, 1070 Joshua Way, Vista, Calif. 92083, USA) to yield 0.05 ml compound-containing medium per well. Inocula were prepared from cultures grown overnight in 2×YT broth at 37° C. Cell densities were adjusted to absorbance at 660 nm (a660)=0.1; the optical density-standardised preparations were diluted 1:1000 in 2×YT broth; and each well inoculated with 0.05 ml of the diluted bacteria. Microtiter plates were incubated at 37° C. for 18 hours in a humidified incubator. The MIC (μM) was recorded as the lowest drug concentration that inhibited visible growth.

Experiment [1] deals with Staphylococcus capitis (American Type Culture Collection number 35661). The experiment is described as follows: Minimal inhibitory concentration (MIC) against Staphylococcus capitis, two fold serial dilutions in 2xYT broth. The class given is cell-based. The note with it: ATCC35661, Staphylococcus capitis ATCC 35661, 37° C., 18 hours, lowest drug concentration that inhibited visible growth, read-out: MIC (S. capitis). On the procedure: as §1, §2

The MIC is the least concentration at which growth counts as inhibited. On to `CCCC[C@H](CN(O)C=O)C(=O)N[C@H](C(=O)c1ccc(F)cc1)C(C)(C)C` [Example 1, 2(R)-[(N-Formyl-N-hydroxyamino)-methyl]-hexanoic Acid-(1′(S)-(4-fluorobenzoyl)-2′,2′-dimethylpropyl)amide], for which the MIC in the experiment on E. coli strain DH5α came to 12.5 µM (≈ 4.76 µg/mL); in experiment [1], 25 µM (≈ 9.51 µg/mL).

For `CCCC[C@H](CN(O)C=O)C(=O)N[C@H](C(=O)c1ccc(OC)cc1)C(C)(C)C` [Example 2], the figures for the minimal inhibitory concentration (MIC) (in the experiment with E. coli strain DH5α; in experiment [1]) were 12.5 µM (≈ 4.91 µg/mL) and 6.25 µM (≈ 2.45 µg/mL), respectively.

On to `CCCC[C@H](CN(O)C=O)C(=O)N[C@H](C(=O)C1CCCCC1)C(C)C` [Example 3, 2(R)-[(N-Formyl-N-hydroxyamino)-methyl]-hexanoic Acid-(1′(S)-cyclohexanecarbonyl-2′-methylpropyl)amide], for which the MIC is 50 µM (≈ 17.7 µg/mL) with E. coli strain DH5α and 25 µM (≈ 8.86 µg/mL) in experiment [1].

On to `CC(C)(C)[C@H](NC(=O)[C@H](CC1CCCC1)CN(O)C=O)C(=O)c1ccc(F)cc1` [Example 4, 3-Cyclopentyl-2(R)-[(N-formyl-N-hydroxyamino)-methyl]-N-[1′(S)-(4-fluorobenzoyl)-2′,2′-dimethylpropyl]propionamide], for which the MIC (in the experiment on E. coli strain DH5α; in experiment [1]) was 3.1 µM (≈ 1.26 µg/mL) in each case.

Consider `COc1ccc(C(=O)[C@@H](NC(=O)[C@H](CC2CCCC2)CN(O)C=O)C(C)(C)C)cc1` [Example 5, 3-Cyclopentyl-2(R)-[(N-formyl-N-hydroxyamino)-methyl]-N-[1′(S)-(4-methoxybenzoyl)-2′,2′-dimethylpropyl]propionamide], for which the MIC is 3.1 µM (≈ 1.3 µg/mL) in the experiment on E. coli strain DH5α and 1.6 µM (≈ 0.67 µg/mL) in experiment [1].

As for `CCCC[C@H](CN(O)C=O)C(=O)N[C@H](C(=O)c1nccn1C)C(C)(C)C` [Example 6, 2(R)-[(N-Formyl-N-hydroxyamino)-methyl]-hexanoic Acid-[2,2-dimethyl-1(S)(1-methyl-1H-imidazole-2-carbonyl)-propyl]-amide], the minimal inhibitory concentration (MIC) with E. coli strain DH5α is 25 µM (≈ 9.16 µg/mL); in experiment [1] it was 200 µM (≈ 73.3 µg/mL).

With `CCCC[C@H](CN(O)C=O)C(=O)N[C@H](C(=O)c1ccccn1)C(C)(C)C` [Example 7, 2(R)-[(N-Formyl-N-hydroxyamino)-methyl]-hexanoic Acid-[2,2-dimethyl-1(S)-(pyridine-2-carbonyl)-propyl]-amide], the MIC stood at 12.5 µM (≈ 4.54 µg/mL) with E. coli strain DH5α and 50 µM (≈ 18.2 µg/mL) in experiment [1].

For the compound `CCCC[C@H](CN(O)C=O)C(=O)N[C@H](C(=O)c1cc2ccccc2o1)C(C)(C)C` [Example 8, 2(R)-[(N-Formyl-N-hydroxyamino)-methyl]-hexanoic Acid-(1′(S)-(benzofuran-2-carbonyl)-2′,2′-dimethylpropyl)amide], the minimum inhibitory concentration (MIC) in the experiment on E. coli strain DH5α was 6.25 µM (≈ 2.52 µg/mL); in experiment [1], 1.6 µM (≈ 0.644 µg/mL).

`CC(C)(C)[C@H](NC(=O)[C@H](CC1CCCC1)CN(O)C=O)C(=O)c1cc2ccccc2o1` [Example 9, N-[1(S)-(Benzofuran-2-carbonyl)-2,2-dimethylpropyl]-3′-cyclopentyl-2′(R)-[(N-formyl-N-hydroxyamino)-methyl]-propionamide]: the MIC came out at 6.25 µM (≈ 2.68 µg/mL) with E. coli strain DH5α and 0.7 µM (≈ 0.3 µg/mL) in experiment [1].

`CCCC[C@H](CN(O)C=O)C(=O)N[C@H](C(=O)c1ccc(OC)cc1OC)C(C)(C)C` [Example 11, 2(R)-[(N-Formyl-N-hydroxyamino)-methyl]-hexanoic Acid [1′-(2,4-dimethoxy-benzoyl)-2′,2′-dimethylpropyl]-amide]: the MIC (with E. coli strain DH5α; in experiment [1]) was 25 µM (≈ 10.6 µg/mL) each time.

For `CCCC[C@H](CN(O)C=O)C(=O)N[C@H](C(=O)c1ccc(O)cc1)C(C)(C)C` [Example 12, 2(R)-[(N-Formyl-N-hydroxyamino)-methyl]-hexanoic Acid [1′(S)-(4-hydroxy-benzoyl)-2′,2′-dimethylpropyl]-amide], the minimal inhibitory concentration (MIC) came to 6.25 µM (≈ 2.37 µg/mL) in the experiment on E. coli strain DH5α and 12 µM (≈ 4.54 µg/mL) in experiment [1].

Turning to `CCCC[C@H](CN(O)C=O)C(=O)N[C@H](C(=O)Cc1ccccn1)C(C)(C)C` [Example 15, 2(R)-[(N-Formyl-N-hydroxyamino)-methyl]-hexanoic Acid-(1′(S)-tert-butyl-2′-oxo-3′-pyridin-2-yl-propyl) Amide], the minimal inhibitory concentration (MIC) in experiment [1] was 100 µM (≈ 37.7 µg/mL).
